According to US12583825B2, “Benzo[h]quinazolin-4-amine and thieno[3,2-h]quinazolin-4-amine derivatives for the treatment of cancer” (Redona Therapeutics, Inc., priority 2020, dated 2026):

Key:
[1] = molecular target: T1, recombinant human CLK3 (Homo sapiens, UniProt P49761); assay: CLK3 kinase assay (LANCE Ultra); assay type: biochemical; conditions: 0.5 nM CLK3, 300 μM ATP, 3 hours at 30° C.
T1 construct: purchased Thermo Fisher Scientific PV3826
Procedure: CLK3 kinase activity was measured using the LANCE® Ultra technology (PerkinElmer) essentially as recommended by the supplier. Briefly, 2.5 μL of test sample at 4× the desired final concentration in 4% DMSO were dispensed into white, low volume, round bottom, 384 well plates (Corning, cat. no. 4512). 5 μL of a mixture containing recombinant human CLK3 (Thermo Fisher Scientific, cat. no. PV3826) and the labeled peptide substrate ULight™-CREBtide (PerkinElmer, cat. no. TRF0107) prepared in 1.33× kinase buffer (Thermo Fisher Scientific, cat. no. PV3189) were then added. Finally, the reactions were started by adding 2.5 μL of a 4× solution of ATP in kinase buffer. The plates were sealed with adhesive foils and incubated for 3 hours at 30° C. in the dark. The final concentrations of CLK3, ULight™—CREBtide, and ATP were 0.5 nM, 50 nM, and 300 μM, respectively. 5 μL of 40 mM EDTA were then added to terminate the reactions. The Eu-anti-phospho-CREB antibody (PerkinElmer, cat. no. TRF0200) diluted in LANCE® detection buffer (PerkinElmer, cat. no. CR97) was then added to a final concentration of 2 nM and the reactions were incubated for 1 hour at room temperature in the dark. The signals were measured using a Synergy 4 reader (BioTek) with a 320/80 nm filter for the excitation and 620/10 nm and 665/8 nm filters for the donor and acceptor emission, respectively. […] IC50 values were calculated by fitting the concentration-response data to a sigmoidal 4-parameter logistic model.

[2] = tested on: MDA-MB-231 cells; assay: MDA-MB-231 proliferation assay; assay type: cell-based; conditions: Homo sapiens, 72 hours, YO-PRO-1 readout
Procedure: MDA-MB-231 Proliferation Assay
MDA-MB-231 cells were cultivated in DMEM High Glucose (4.5 g/L) with L-Glutamine (BioConcept, cat. no. 1-26F03-I) supplemented with 1% Na-pyruvate (Sigma, cat. no. S8636), 1% Penicillin-Streptomycin (BioConcept, cat. no. 4-01F00H), and 10% FBS (Sigma, cat. no. F9665) using standard techniques. Cells were seeded in black, clear-bottom 384 well plates for tissue culture (Greiner Bio-One, cat. no. 781091) at a density of 750 cells per well in 20 μL medium and the plates were incubated overnight at 37° C. with 5% CO2 prior to treatment. Experimental compounds were serially diluted in DMSO to 200× the desired final concentrations. The solutions were then diluted 1:40 with culture medium and 5 μL aliquots were mixed into the wells containing the cells. The final concentration of DMSO was 0.5%. The plates were incubated for 72 hours and cell numbers were then measured using YO-PRO™-1 Iodide (ThermoFisher Scientific, cat. no. Y3603) essentially as recommended by the manufacturer. […] The plates were incubated at room temperature in the dark for 30 minutes. Fluorescence intensity signals were then measured on a Synergy 4 reader (BioTek) using 485/20 nm and 530/25 nm filters for the excitation and emission, respectively. Relative proliferation values were calculated by normalizing the raw data using DMSO-treated cells (100% proliferation) and the signals obtained from cells that were evaluated at the time of compound addition (0% proliferation). The concentration-response data were fitted to a sigmoidal 4-parameter logistic model with the maximum constrained to 100%.

T1 sequence (P49761 whole entry): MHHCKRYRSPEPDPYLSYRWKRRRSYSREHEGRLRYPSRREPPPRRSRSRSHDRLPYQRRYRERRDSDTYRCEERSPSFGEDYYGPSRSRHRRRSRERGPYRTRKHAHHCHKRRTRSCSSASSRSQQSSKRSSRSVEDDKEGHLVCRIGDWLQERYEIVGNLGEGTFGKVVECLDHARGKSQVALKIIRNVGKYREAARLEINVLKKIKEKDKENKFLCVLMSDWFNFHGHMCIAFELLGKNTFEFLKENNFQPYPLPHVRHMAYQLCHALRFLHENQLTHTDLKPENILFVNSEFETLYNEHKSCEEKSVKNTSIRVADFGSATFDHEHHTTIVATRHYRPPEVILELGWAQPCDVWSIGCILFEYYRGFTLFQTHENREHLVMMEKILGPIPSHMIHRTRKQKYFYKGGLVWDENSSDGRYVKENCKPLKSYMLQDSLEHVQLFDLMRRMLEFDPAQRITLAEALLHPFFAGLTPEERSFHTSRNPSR

| Compound | IC50 [1] | GI50 [2] |
| --- | --- | --- |
| CC1(C)/C(=N/OCCN2CCCCC2)c2cc(O[C@H]3CC[C@H](N)CC3)ccc2-c2ncnc(N)c21 [Example 16, (6Z)-8-(trans-4-aminocyclohexoxy)-5,5-dimethyl-6-[2-(1-piperidyl)ethoxyimino]benzo[h]quinazolin-4-amine] | 265 nM | > 2000 nM |
| CC1(C)/C(=N/OCc2ccc(C#N)cc2)c2cc(O[C@H]3CC[C@H](N)CC3)ccc2-c2ncnc(N)c21 [Example 20, 4-[[(Z)-[4-amino-8-(trans-4-aminocyclohexoxy)-5,5-dimethyl-benzo[h]quinazolin-6-ylidene]amino]oxymethyl]benzonitrile] | 237 nM | > 2000 nM |
| CC1(C)/C(=N/OCC#N)c2cc(O[C@H]3CC[C@H](N)CC3)ccc2-c2ncnc(N)c21 [Example 22, [(Z)-[4-amino-8-(trans-4-aminocyclohexoxy)-5,5-dimethyl-benzo[h]quinazolin-6-ylidene]amino]oxyacetonitrile] | 34.5 nM | 691 nM |
| CCOC(=O)CCO/N=C1\c2cc(O[C@H]3CC[C@H](N)CC3)ccc2-c2ncnc(N)c2C1(C)C [Example 23, ethyl 3-[(Z)-[4-amino-8-(trans-4-aminocyclohexoxy)-5,5-dimethyl-benzo[h]quinazolin-6-ylidene]amino]oxypropanoate] | 26.5 nM | 647 nM |
| Cc1noc(C)c1CO/N=C1\c2cc(O[C@H]3CC[C@H](N)CC3)ccc2-c2ncnc(N)c2C1(C)C [Example 25, (6Z)-8-(trans-4-aminocyclohexoxy)-6-[(3,5-dimethylisoxazol-4-yl)methoxyimino]-5,5-dimethyl-benzo[h]quinazolin-4-amine] | 151 nM | 1600 nM |
| CC1(C)/C(=N/OCCCOCc2ccccc2)c2cc(O[C@H]3CC[C@H](N)CC3)ccc2-c2ncnc(N)c21 [Example 26, (6Z)-8-(trans-4-aminocyclohexoxy)-6-(3-benzyloxypropoxyimino)-5,5-dimethyl-benzo[h]quinazolin-4-amine] | 42.6 nM | 1360 nM |
| CC1(C)/C(=N/OCCN2CCCC2)c2cc(O[C@H]3CC[C@H](N)CC3)ccc2-c2ncnc(N)c21 [Example 28, (6Z)-8-(trans-4-aminocyclohexoxy)-5,5-dimethyl-6-(2-pyrrolidin-1-ylethoxyimino)benzo[h]quinazolin-4-amine] | 279 nM | > 2000 nM |
| CC(C)CO/N=C1\c2cc(O[C@H]3CC[C@H](N)CC3)ccc2-c2ncnc(N)c2C1(C)C [Example 30, (6Z)-8-(trans-4-aminocyclohexoxy)-6-isobutoxyimino-5,5-dimethyl-benzo[h]quinazolin-4-amine] | 93.9 nM | 1560 nM |
| COC(=O)CO/N=C1\c2cc(O[C@H]3CC[C@H](N)CC3)ccc2-c2ncnc(N)c2C1(C)C [Example 31, methyl 2-[(Z)-[4-amino-8-(trans-4-aminocyclohexoxy)-5,5-dimethyl-benzo[h]quinazolin-6-ylidene]amino]oxyacetate] | 76.2 nM | 1580 nM |
| CC1(C)/C(=N/OCC(N)=O)c2cc(O[C@H]3CC[C@H](N)CC3)ccc2-c2ncnc(N)c21 [Example 32, 2-[(Z)-[4-amino-8-(trans-4-aminocyclohexoxy)-5,5-dimethyl-benzo[h]quinazolin-6-ylidene]amino]oxyacetamide] | 29.6 nM | 1490 nM |
| CNC(=O)CO/N=C1\c2cc(O[C@H]3CC[C@H](N)CC3)ccc2-c2ncnc(N)c2C1(C)C [Example 33, 2-[(Z)-[4-amino-8-(trans-4-aminocyclohexoxy)-5,5-dimethyl-benzo[h]quinazolin-6-ylidene]amino]oxy-N-methyl-acetamide] | 23.3 nM | 1190 nM |
| CC1(C)/C(=N/OCC2CNC(=O)O2)c2cc(O[C@H]3CC[C@H](N)CC3)ccc2-c2ncnc(N)c21 (stereo partly drawn) [Example 34, 5-[[(Z)-[4-amino-8-(trans-4-aminocyclohexoxy)-5,5-dimethyl-benzo[h]quinazolin-6-ylidene]amino]oxymethyl]oxazolidin-2-one] | 10.9 nM | 620 nM |
| CN(C)CCO/N=C1\c2cc(O[C@H]3CC[C@H](N)CC3)ccc2-c2ncnc(N)c2C1(C)C [Example 35, (6Z)-8-(trans-4-aminocyclohexoxy)-6-[2-(dimethylamino)ethoxyimino]-5,5-dimethyl-benzo[h]quinazolin-4-amine] | 144 nM | 1480 nM |
| CO/N=C1\c2cc(O[C@H]3CC[C@H](N)CC3)sc2-c2ncnc(N)c2C1(C)C [Example 36, (6Z)-8-(trans-4-aminocyclohexoxy)-6-methoxyimino-5,5-dimethyl-thieno[3,2-h]quinazolin-4-amine] | 56.4 nM | 1150 nM |
| CC1(C)/C(=N/OC[C@H]2CNC(=O)O2)c2cc(O[C@H]3CC[C@H](N)CC3)ccc2-c2ncnc(N)c21 [Example 37, (5R)-5-[[(Z)-[4-amino-8-(trans-4-aminocyclohexoxy)-5,5-dimethyl-benzo[h]quinazolin-6-ylidene]amino]oxymethyl]oxazolidin-2-one] | 59 nM | > 2000 nM |
| CO/N=C1\c2cc(OC)c(Cl)cc2-c2ncnc(N)c2C1(C)C [Example 41, (6Z)-9-chloro-8-methoxy-6-methoxyimino-5,5-dimethyl-benzo[h]quinazolin-4-amine] | 92.8 nM | > 2000 nM |
| CO/N=C1\c2c(ccc(OC)c2Cl)-c2ncnc(N)c2C1(C)C [Example 43, (6Z)-7-chloro-8-methoxy-6-methoxyimino-5,5-dimethyl-benzo[h]quinazolin-4-amine] | 90.5 nM | > 2000 nM |
| CO/N=C1\c2cc(N(C)[C@H]3CC[C@H](N)CC3)ccc2-c2ncnc(N)c2C1(C)C [Example 44, (6Z)—N8-(trans-4-aminocyclohexyl)-6-methoxyimino-N8,5,5-trimethyl-benzo[h]quinazoline-4,8-diamine] | 15.8 nM | > 2000 nM |
| CO/N=C1/c2cc(O[C@H]3CC[C@H](N)CC3)ccc2-c2ncnc(N)c2C1(C)C [Example 45, (6E)-8-(trans-4-aminocyclohexoxy)-6-methoxyimino-5,5-dimethyl-benzo[h]quinazolin-4-amine] | 104 nM | 1460 nM |
| CC1(C)/C(=N\O)c2cc(O[C@H]3CC[C@H](N)CC3)ccc2-c2ncnc(N)c21 [Example 46, (6E)-4-amino-8-(trans-4-aminocyclohexoxy)-5,5-dimethyl-benzo[h]quinazolin-6-one oxime] | 12.7 nM | 470 nM |
| C=C(c1ccc2c(c1)/C(=N/OC)C(C)(C)c1c(N)ncnc1-2)[C@H]1CC[C@H](N)CC1 [Example 47, (6E)-8-[1-(trans-4-aminocyclohexyl)vinyl]-6-methoxyimino-5,5-dimethyl-benzo[h]quinazolin-4-amine] | 77.3 nM | 443 nM |
| CO/N=C1/c2c(ccc(OC)c2Cl)-c2ncnc(N)c2C1(C)C [Example 48, (6E)-7-chloro-8-methoxy-6-methoxyimino-5,5-dimethyl-benzo[h]quinazolin-4-amine] | 4.9 nM | > 2000 nM |
| CO/N=C1/c2c(ccc(OC)c2N)-c2ncnc(N)c2C1(C)C [Example 49, (6E)-8-methoxy-6-methoxyimino-5,5-dimethyl-benzo[h]quinazoline-4,7-diamine] | 14.4 nM | > 2000 nM |
| COc1ccc2c(c1)/C(=N\OC[C@@H]1CN(C)C(=O)O1)C(C)(C)c1c(N)ncnc1-2 [Example 50, (5S)-5-[[(Z)-(4-amino-8-methoxy-5,5-dimethyl-benzo[h]quinazolin-6-ylidene)amino]oxymethyl]-3-methyl-oxazolidin-2-one] | < 1.5 nM | 761 nM |
| CC1(C)/C(=N/OC[C@@H]2CNC(=O)O2)c2cc(Br)ccc2-c2ncnc(N)c21 [Example 51, (5S)-5-[[(Z)-(4-amino-8-bromo-5,5-dimethyl-benzo[h]quinazolin-6-ylidene)amino]oxymethyl]oxazolidin-2-one] | 7.26 nM | 511 nM |
